According to the NIST ThermoML archive (doi:10.1016/j.jct.2015.12.017):
Where “and” joins values, the source holds several entries; their conditions need not be identical. Identical values can stand only once.

Test: molar heat capacity at constant pressure
Details: 101.33 kPa, Small sample (50 mg) DSC

O=P([O-])([O-])[O-].[Co+2].[Cs+] [cesium cobalt(II) phosphate]
Details | molar heat capacity at constant pressure
451.9 K, Crystal 3 | 167.95 J/K/mol
454.4 K, Crystal 3 | 167.95 J/K/mol
456.9 K, Crystal 3 | 168.78 J/K/mol
459.4 K, Crystal 3 | 169.62 J/K/mol
460 K, Crystal 3 | 169.45 J/K/mol
461.9 K, Crystal 3 | 170.45 J/K/mol
464.4 K, Crystal 3 | 170.45 J/K/mol
466.9 K, Crystal 3 | 171.28 J/K/mol
469.4 K, Crystal 3 | 172.11 J/K/mol
470 K, Crystal 3 | 172.44 J/K/mol
471.9 K, Crystal 3 | 172.94 J/K/mol
474.4 K, Crystal 3 | 173.77 J/K/mol
476.9 K, Crystal 3 | 174.6 J/K/mol
479.4 K, Crystal 3 | 176.27 J/K/mol
480 K, Crystal 3 | 175.02 J/K/mol
481.9 K, Crystal 3 | 182.92 J/K/mol
484.4 K, Crystal 3 | 205.37 J/K/mol
486.9 K, Crystal 2 | 241.12 J/K/mol and 177.1 J/K/mol
486.9 K, Crystal 3 | 177.1 J/K/mol and 241.12 J/K/mol
489.8 K, Crystal 2 | 196.22 J/K/mol
490 K, Crystal 2 | 176.68 J/K/mol
491.9 K, Crystal 2 | 182.09 J/K/mol
494.4 K, Crystal 2 | 177.93 J/K/mol
496.9 K, Crystal 2 | 177.1 J/K/mol
499.4 K, Crystal 2 | 177.93 J/K/mol
500 K, Crystal 2 | 177.51 J/K/mol
501.9 K, Crystal 2 | 178.76 J/K/mol
504.4 K, Crystal 2 | 181.26 J/K/mol
506.9 K, Crystal 2 | 185.41 J/K/mol
509.4 K, Crystal 2 | 192.06 J/K/mol
510 K, Crystal 2 | 177.51 J/K/mol
511.6 K, Crystal 2 | 215.34 J/K/mol
514.4 K, Crystal 1 | 253.59 J/K/mol and 177.02 J/K/mol
514.4 K, Crystal 2 | 253.59 J/K/mol and 177.76 J/K/mol
517.3 K, Crystal 1 | 198.72 J/K/mol
518.6 K, Crystal 1 | 188.74 J/K/mol
520 K, Crystal 1 | 177.02 J/K/mol
520.2 K, Crystal 1 | 184.58 J/K/mol
523.1 K, Crystal 1 | 181.26 J/K/mol
526.9 K, Crystal 1 | 178.76 J/K/mol
529.4 K, Crystal 1 | 177.93 J/K/mol
530 K, Crystal 1 | 177.02 J/K/mol
531.9 K, Crystal 1 | 177.1 J/K/mol
534.4 K, Crystal 1 | 177.1 J/K/mol
536.9 K, Crystal 1 | 177.1 J/K/mol
539.4 K, Crystal 1 | 177.1 J/K/mol
540 K, Crystal 1 | 177.02 J/K/mol
541.9 K, Crystal 1 | 177.1 J/K/mol
544.4 K, Crystal 1 | 177.1 J/K/mol
546.9 K, Crystal 1 | 177.1 J/K/mol
549.4 K, Crystal 1 | 177.1 J/K/mol
550 K, Crystal 1 | 177.02 J/K/mol
551.9 K, Crystal 1 | 177.1 J/K/mol
554.4 K, Crystal 1 | 177.1 J/K/mol
556.9 K, Crystal 1 | 177.1 J/K/mol
559.4 K, Crystal 1 | 177.1 J/K/mol
560 K, Crystal 1 | 177.02 J/K/mol
561.9 K, Crystal 1 | 177.1 J/K/mol
564.4 K, Crystal 1 | 177.1 J/K/mol
566.9 K, Crystal 1 | 177.1 J/K/mol
569.4 K, Crystal 1 | 177.1 J/K/mol
570 K, Crystal 1 | 177.02 J/K/mol
571.9 K, Crystal 1 | 177.1 J/K/mol
574.4 K, Crystal 1 | 177.1 J/K/mol
576.9 K, Crystal 1 | 177.1 J/K/mol
579.4 K, Crystal 1 | 177.1 J/K/mol
580 K, Crystal 1 | 177.02 J/K/mol
581.9 K, Crystal 1 | 177.1 J/K/mol
584.4 K, Crystal 1 | 177.1 J/K/mol
586.9 K, Crystal 1 | 177.1 J/K/mol
589.4 K, Crystal 1 | 177.1 J/K/mol
590 K, Crystal 1 | 177.02 J/K/mol
591.9 K, Crystal 1 | 177.1 J/K/mol
594.4 K, Crystal 1 | 177.1 J/K/mol
596.9 K, Crystal 1 | 177.1 J/K/mol
599.4 K, Crystal 1 | 177.1 J/K/mol
600 K, Crystal 1 | 177.02 J/K/mol
601.9 K, Crystal 1 | 177.1 J/K/mol
604.4 K, Crystal 1 | 177.1 J/K/mol
606.9 K, Crystal 1 | 177.1 J/K/mol
609.4 K, Crystal 1 | 177.1 J/K/mol
610 K, Crystal 1 | 177.02 J/K/mol
611.9 K, Crystal 1 | 177.93 J/K/mol
614.4 K, Crystal 1 | 177.93 J/K/mol
616.9 K, Crystal 1 | 177.93 J/K/mol
619.4 K, Crystal 1 | 177.93 J/K/mol
620 K, Crystal 1 | 177.02 J/K/mol
621.9 K, Crystal 1 | 177.93 J/K/mol
624.4 K, Crystal 1 | 177.93 J/K/mol
626.9 K, Crystal 1 | 177.93 J/K/mol
629.4 K, Crystal 1 | 177.93 J/K/mol
630 K, Crystal 1 | 177.02 J/K/mol
631.9 K, Crystal 1 | 177.93 J/K/mol
634.4 K, Crystal 1 | 177.93 J/K/mol
636.9 K, Crystal 1 | 177.93 J/K/mol
639.4 K, Crystal 1 | 177.93 J/K/mol
640 K, Crystal 1 | 177.02 J/K/mol
641.9 K, Crystal 1 | 177.93 J/K/mol
644.4 K, Crystal 1 | 177.93 J/K/mol
646.9 K, Crystal 1 | 177.93 J/K/mol
649.4 K, Crystal 1 | 177.93 J/K/mol
650 K, Crystal 1 | 177.02 J/K/mol
